Data on 23 molecules can be found in ChEMBL document CHEMBL6083253, “Chemical synthesis and enzymatic late-stage diversification of novel pantothenate analogues with antiplasmodial activity” (Eur J Med Chem, 2024).

For data set [1], the system named is Plasmodium falciparum. Briefly: Antiplasmodial activity against intraerythrocytic stage of Plasmodium falciparum 3D7 assessed as inhibition of parasite proliferation in presence of pantetheinase. Format: functional, organism-based.
Data set [2] has as its system Plasmodium falciparum. As to the kind of experiment: Antiplasmodial activity against Plasmodium falciparum infected in human Erythrocyte measured after 96 hrs in presence of chloroquine and 1 uM of pantothenate by SYBR green fluorescence dye based microplate reader analysis. Type of data set: functional, organism-based.
Data set [3] has as its system Plasmodium falciparum. Briefly: Antiplasmodial activity against Plasmodium falciparum infected in human Erythrocyte measured after 96 hrs in presence of chloroquine and 100 uM of pantothenate by SYBR green fluorescence dye based microplate reader analysis. Type of data set: functional, organism-based.
Data set [4] deals with Priestia megaterium. As to the kind of experiment: Substrate activity at full length C-terminal his-tagged Bacillus megaterium […] BM3 A82F/F87V double mutant preincubated for 5 min in presence of NADP+ followed by compound addition by LC-MS analysis.
The subject of data set [5] is Priestia megaterium. Briefly: Substrate activity at full length C-terminal his-tagged wild type Bacillus megaterium […] BM3 preincubated for 5 min in presence of NADP+ followed by compound addition by LC-MS analysis.
A short description of data set [6]: Cytotoxicity against HFF cells assessed as inhibition of cell proliferation at 200 uM incubated for 96 hrs in presence of 16.8 uM of pantothenate by IncuCyte live-cell analysis. Type of data set: toxicity, cell-based. As to conditions: human.
Data set [7] concerns Priestia megaterium. As to the kind of experiment: Substrate activity at full length C-terminal his-tagged Bacillus megaterium […] BM3 A82F/F87V double mutant assessed as conversion rate by UV-HPLC analysis.
Data set [8] in a line: Binding affinity to full length C-terminal his-tagged Bacillus megaterium […] BM3 A82F/F87V double mutant assessed as dissociation constant by Morrison equation based analysis. Also noted: species or system Priestia megaterium.
In data set [9] the test system is Plasmodium falciparum. As to the kind of experiment: Antiplasmodial activity against intraerythrocytic stage of Plasmodium falciparum 3D7 assessed as inhibition of parasite proliferation. Format: functional, organism-based.
Data set [10] is described as follows: Binding affinity to full length C-terminal his-tagged Bacillus megaterium […] BM3 A82F/F87V double mutant assessed as dissociation constant by Michaelis-Menten equation based analysis. Further details: species or system Priestia megaterium.
The nature of data set [11]: Cytotoxicity against HFF cells assessed as inhibition of cell proliferation at 10 uM incubated for 96 hrs by IncuCyte live-cell analysis. Type of data set: toxicity, cell-based. As to conditions: human.
Data set [12] deals with Priestia megaterium. As to the kind of experiment: Substrate activity at wild type full length C-terminal his-tagged Bacillus megaterium […] BM3 assessed as conversion rate by UV-HPLC analysis.

Molecules are shown by their SMILES. pIC50, pKd: −log10 of the molar value. The source made the active and inactive calls. No cut-off for these calls is given here.

For the molecule `CCCCc1cc(CNC(=O)[C@H](O)C(C)(C)CO)no1`, the pIC50 with Plasmodium falciparum [1] was 7.14.

As for `CC(C)(O)CCCc1cc(CNC(=O)[C@H](O)C(C)(C)CO)no1`, the pIC50 in the data set with Plasmodium falciparum [2] was 4.26.

As for `CC(C)(C)Cc1cc(CNC(=O)[C@H](O)C(C)(C)CO)no1`, the pIC50 is 5.40 in the data set with Plasmodium falciparum [2] and less than 4.30 in the data set on Plasmodium falciparum [3]. Besides, the result with Priestia megaterium [4] was inactive. For the same molecule, the result with Priestia megaterium [5] was Active. In addition, the inhibition at 96 h, 200 µM in data set [6] stood at 102%.

On to `CCC(C)c1cc(CNC(=O)[C@H](O)C(C)(C)CO)no1` (some centres undefined), for which the pIC50 with Plasmodium falciparum [2] is 5.00. The result with Priestia megaterium [4] and in the data set on Priestia megaterium [5] was inactive.

On to `CC(C)Cc1cc(CNC(=O)[C@H](O)C(C)(C)CO)no1`, for which the pIC50 is 6.33 in the data set on Plasmodium falciparum [2] and less than 5.20 in the data set with Plasmodium falciparum [3]. Moreover, the result with Priestia megaterium [4] and in the data set with Priestia megaterium [5] was Active. Besides, the Activity in the data set on Priestia megaterium [7] stood at 37.5%. The pKd in [8] is 5.52. In [6], the inhibition at 96 h, 200 µM came to 100%.

`CC(C)(CO)[C@@H](O)C(=O)NCc1cn(CCCc2ccccc2)nn1`: the results for the pIC50 in the data set with Plasmodium falciparum [2] and with Plasmodium falciparum [9] were 4.80 and 4.60, respectively. For the same molecule, the result in the data set with Priestia megaterium [4] and in the data set with Priestia megaterium [5] was Active. Further, in the data set with Priestia megaterium [7], the Activity is 32.3%. Besides, the pKd in [10] is 5.00.

In the case of `CC(C)C(O)c1cc(CNC(=O)[C@H](O)C(C)(C)CO)no1` (some centres undefined), the negative-log IC50 (pIC50) in the data set with Plasmodium falciparum [2] is 4.10.

Take `C[C@@H]1C[C@@H]([C@H](O)CC2CC(=O)NC(=O)C2)C(=O)[C@@H](C)C1` [CYCLOHEXIMIDE]: the inhibition at 96 h, 10 µM in [11] was found to be 100%.

Turning to `CC(C)(O)CCc1cc(CNC(=O)[C@H](O)C(C)(C)CO)no1`, in the data set on Plasmodium falciparum [2], the pIC50 was 4.54.

For `CCCCCNC(=O)CCNC(=O)[C@H](O)C(C)(C)CO`, the outcome with Priestia megaterium [4] and in the data set with Priestia megaterium [5] was inactive.

As to `CCSCc1cc(CNC(=O)[C@H](O)C(C)(C)CO)no1`, the pIC50 in the data set with Plasmodium falciparum [2] was 6.89; in the data set with Plasmodium falciparum [3], less than 5.80. Also, the result with Priestia megaterium [4], with Priestia megaterium [7] and in the data set on Priestia megaterium [5] was Active. Also, the pKd in data set [8] was 6.05. For the same molecule, the inhibition at 96 h, 200 µM in data set [6] was 100%.

For the molecule `CC(C)C(O)Cc1cc(CNC(=O)[C@H](O)C(C)(C)CO)no1` (some centres undefined), in the data set with Plasmodium falciparum [2], the pIC50 was 5.14.

Regarding `CC(C)CCc1cc(CNC(=O)[C@H](O)C(C)(C)CO)no1`, the pIC50 is 6.66 in the data set with Plasmodium falciparum [2] and less than 5.51 in the data set on Plasmodium falciparum [3]. Also, the Activity with Priestia megaterium [12] was 85.6%. Moreover, the outcome in the data set on Priestia megaterium [4] and in the data set with Priestia megaterium [5] was Active. Besides, in [6], the inhibition at 96 h, 200 µM was found to be 100%.

Consider `CC(C)C(O)CCc1cc(CNC(=O)[C@H](O)C(C)(C)CO)no1` (some centres undefined), for which the pIC50 in the data set with Plasmodium falciparum [2] was 5.41; with Plasmodium falciparum [3], less than 4.30. Moreover, the inhibition at 96 h, 200 µM in [6] was 101%.

On to `CCCCCc1cc(CNC(=O)[C@H](O)C(C)(C)CO)no1`, for which the pIC50 in the data set with Plasmodium falciparum [1] is 6.80.

On to `CCCCCc1noc(CNC(=O)[C@H](O)C(C)(C)CO)n1`, for which the outcome in the data set on Priestia megaterium [4] and in the data set with Priestia megaterium [5] was Active. Moreover, in the data set on Priestia megaterium [7], the Activity amounted to 32.9%.

Consider `CCCCCCn1cc(CNC(=O)[C@H](O)C(C)(C)CO)nn1`, for which the negative logarithm of the IC50 (pIC50) with Plasmodium falciparum [1] is 7.26.

On to `CCCCCn1cc(CNC(=O)[C@H](O)C(C)(C)CO)nn1`, for which the pIC50 in the data set on Plasmodium falciparum [1] was 7.25.

Take `CC[S+]([O-])Cc1cc(CNC(=O)[C@H](O)C(C)(C)CO)no1` (some centres undefined): the pIC50 with Plasmodium falciparum [2] was 3.82.

With `CCCCCc1nnc(CNC(=O)[C@H](O)C(C)(C)CO)o1`, the outcome with Priestia megaterium [4] and with Priestia megaterium [5] was inactive.

As to `CC(C)(CO)[C@@H](O)C(=O)NCc1cn(CC(O)Cc2ccccc2)nn1` (some centres undefined), the pIC50 with Plasmodium falciparum [2] is less than 3.70.

Regarding `CC(C)CCCc1cc(CNC(=O)[C@H](O)C(C)(C)CO)no1`, the pIC50 is 6.46 with Plasmodium falciparum [2] and less than 5.51 with Plasmodium falciparum [3]. For the same molecule, the outcome with Priestia megaterium [4], in the data set with Priestia megaterium [7] and in the data set with Priestia megaterium [5] was Active. The pKd in [8] was 5.43. The inhibition at 96 h, 200 µM in [6] is 102%.

As to `CCCCCc1nnc(CNC(=O)[C@H](O)C(C)(C)CO)[nH]1`, the result with Priestia megaterium [4] and with Priestia megaterium [5] was inactive.

What is called pIC50 is the negative decadic logarithm of the IC50, by convention in mol/L. What is called inhibition is the drop in the measured response relative to a control, in per cent. What is called pKd is −log10 of the Kd, conventionally taken in molar units.
